Data: patent US20260285853A1, “COMPOUNDS AND METHODS FOR MODULATING SPLICING” (REMIX THERAPEUTICS INC., priority 2023, published 2026)
Read-outs that look alike come from different tables or passages of the source.

Legend:
Type in all cases: cell-based
MYB mRNA [1] = experiment: Splicing RT-qPCR assay (THP), Table 2A
HTT mRNA [2] = experiment: Splicing RT-qPCR assay (THP), Table 2A
[3] = system: SH-SY5Y (human neuroblastoma) cells; experiment: Cell viability, Cell Titer Glo 2.0 assay; details: read-out: Viability SHSY5Y.3 GI50
Experimental: Compounds described herein were screened for toxicity in K562 (human chronic myelogenous leukemia) and SH-SY5Y (human neuroblastoma) cells using a Cell Titer Glo 2.0 assay.
• Promega CellTiter-Glo® 2.0 Cell Viability Assay (cat #G9241) • Corning 384-well TC-treated microplates (cat #3570)
Cells were plated at 500 cells/well (K562 cells) in 45 μL of IMDM supplemented with 10% FBS in a 384-well opaque plate. Wells containing only medium were used as a blank control. Test compounds (e.g., compounds of Formula (I) or (II) were first serially diluted in DMSO then diluted 1:100 with IMDM+10% FBS. The final concentration of DMSO was 0.1% in each well. The cells were incubated for 72 hours at 37° C. and 5% CO2 before assaying with Cell Titer Glo 2.0 reagent.

MYB mRNA [4] = experiment: Gene panel canonical junction qPCR assay, decrease in CJ mRNA, Table 3
Experimental: (§1) Compounds described herein were used to modulate RNA transcript abundance in cells. The expression of a target mRNA was measured by detecting the formation of an exon-exon junction in the canonical transcript (CJ). A compound mediated exon-inclusion event was detected by observing an increase in formation of a new junction with an alternative exon (AJ). Real-time qPCR assays were used to detect these splicing switches and interrogate the potency of various compounds towards different target genes. A high-throughput real time quantitative PCR (RT-qPCR) assay was developed to measure these two isoforms of the mRNA (CJ and AJ) for exemplary genes, such as HTT, SMN2, and MYB, together with a control housekeeping gene, GAPDH or GUSB or PPIA, used for normalization. Briefly, the A673 or K562 cell line was treated with various compounds described herein (e.g., compounds of Formula (I)). After treatment, the levels of the HTT, MYB, or SMN2 mRNA targets were determined from each sample of cell lysate by cDNA synthesis followed by qPCR.
(§2) The A673 cell line was cultured in DMEM with 10% FBS. Cells were diluted with full growth media and plated in a 96-well plate (15,000 cells in 100 ul media per well). The plate was incubated at 37° C. with 5% CO2 for 24 hours to allow cells to adhere. An 11-point 3-fold serial dilution of the compounds was made in DMSO then diluted in media in an intermediate plate. Compounds were transferred from the intermediate plate to the cell plate with the top dose at a final concentration of 10 uM in the well. Final DMSO concentration was kept at or below 0.25%. The cell plate was returned to the incubator at 37° C. with 5% CO2 for an additional 24 hours.
(§3) The K562 cell line was cultured in IMDM with 10% FBS. For K562, cells were diluted with full growth media and plated in either a 96-well plate (50,000 cells in 50 uL media per well) or a 384-well plate (8,000-40,000 cells in 45 uL media per well). An 11-point 3-fold serial dilution of the compounds were made in DMSO then diluted in media in an intermediate plate. Compound was transferred from the intermediate plate to the cell plate with the top dose at a final concentration of 10 uM in the well. Final DMSO concentration was kept at or below 0.25%. Final volume was 100 uL for 96-well plate and 50 uL for 384-well plate. The cell plate was then placed in an incubator at 37° C. with 5% CO2 for 24 hours.
(§4) The data analysis was performed by first determining the ΔCt vs the housekeeper gene. This ΔCt was then normalized against the DMSO control (ΔΔCt) and converted to RQ (relative quantification) using the 2^(−ΔΔCt) equation. The RQ were then converted to a percentage response by arbitrarily setting an assay window of 3.5 and 4.0 ΔCt for HTT-CJ and MYB-CJ respectively and an assay window of 9 and 3 ΔCt for HTT-AJ and MYB-AJ in 96 well format (50,000 K562 cells/well and 15,000 A673 cells per well) and an assay window of 3 and 4 ΔCt for HTT-CJ and MYB-CJ respectively and an assay window of 5 and 3 ΔCt for HTT-AJ and MYB-AJ respectively in 384 well format (8,000 K562 cells/well example). […] The percentage response was then fitted to the 4 parametric logistic equation to evaluate the concentration dependence of compound treatment. The increase in AJ mRNA is reported as AC50 (compound concentration having 50% response in AJ increase) while the decrease in CJ mRNA levels is reported as IC50 (compound concentration having 50% response in CJ decrease).
(§5) Additional studies were carried out for a larger panel of genes using the protocol provided above. The junction between flanking upstream and downstream exons was used to design canonical junction qPCR assays. At least one of the forward primer, reverse primer or the CY5-labeled 5′ nuclease probe (with 3′ quencher such as ZEN/Iowa Black FQ) was designed to overlap with the exon junction to capture the CJ mRNA transcript. […]

HTT mRNA [5] = experiment: as above
Experimental: as §1, §2, §3, §4, §5

[6] = Table 2A, THP, MYB alternative junction (AJ) mRNA, read-out: MYB AJ (AC50, increase in alternative junction mRNA)
[7] = Table 2A, THP, MYB canonical junction (CJ) mRNA, read-out: MYB CJ (IC50, decrease in canonical junction mRNA)
[8] = Table 2A, THP, HTT alternative junction (AJ) mRNA, read-out: HTT AJ (AC50, increase in alternative junction mRNA)
[9] = Table 2A, THP, HTT canonical junction (CJ) mRNA, read-out: HTT CJ (IC50, decrease in canonical junction mRNA)
[10] = decrease in CJ mRNA levels, canonical junction qPCR, gene panel
[11] = Table 2A (THP), AJ mRNA increase, read-out: MYB AJ (increase in alternative junction mRNA, AC50)
[12] = Table 2A (THP), CJ mRNA decrease, read-out: MYB CJ (decrease in canonical junction mRNA, IC50)
[13] = Table 2A (THP), AJ mRNA increase, read-out: HTT AJ (increase in alternative junction mRNA, AC50)
[14] = Table 2A (THP), CJ mRNA decrease, read-out: HTT CJ (decrease in canonical junction mRNA, IC50)
[15] = decrease in canonical junction (CJ) mRNA, gene panel qPCR, Table 3

IC50 (MYB mRNA [1]; [7]) [µM]	IC50 (HTT mRNA [2]; [9]) [µM]	GI50 [3] [µM]	IC50 (MYB mRNA [4]; [10]) [µM]	IC50 (HTT mRNA [5]; [10]) [µM]	IC50 (MYB mRNA [1]; [12]) [µM]	IC50 (HTT mRNA [2]; [14]) [µM]	IC50 (MYB mRNA [4]; [15]) [µM]	IC50 (HTT mRNA [5]; [15]) [µM]	SMILES	AC50 (MYB mRNA [1]; [6]) [µM]	AC50 (HTT mRNA [2]; [8]) [µM]	AC50 (MYB mRNA [1]; [11]) [µM]	AC50 (HTT mRNA [2]; [13]) [µM]
1 to 10	> 10	> 10	1 to 10	> 10	–	–	–	–	Cc1cn2cc(NC(=O)c3ccc(N4CCC(NC5CC5)CC4)c4cn(C)nc34)cc(CNS(C)(=O)=O)c2n1 [Compound 816, 4-[4-(cyclopropylamino)-1-piperidyl]-N-[8-(methanesulfonamidomethyl)-2-methyl-imidazo[1,2-a]pyridin-6-yl]-2-methyl-indazole-7-carboxamide]	1 to 10	> 10	–	–
–	–	< 0.1	–	–	< 0.1	0.1 to 1	< 0.1	0.1 to 1	COc1c(NC(=O)c2c(F)cc(N3CCC(NC4CC4)CC3)c3cn(C)nc23)cc2cn(C)nc2c1Cl [Compound 433, N-(7-chloro-6-methoxy-2-methyl-indazol-5-yl)-4-[4-(cyclopropylamino)-1-piperidyl]-6-fluoro-2-methyl-indazole-7-carboxamide]	–	–	< 0.1	0.1 to 1
–	–	> 10	–	–	1 to 10	> 10	1 to 10	> 10	COc1c(NC(=O)c2c(F)cc(N3CCS(=N)(=O)CC3)c3cn(C)nc23)cn2cc(C)nc2c1F [Compound 330, 6-fluoro-N-(8-fluoro-7-meth-oxy-2-methyl-imidazo[1,2-a]-pyridin-6-yl)-4-(1-imino-1-oxo-1,4-thiazinan-4-yl)-2-methyl-indazole-7-carboxamide]	–	–	0.1 to 1	> 10
0.1 to 1	1 to 10	1 to 10	0.1 to 1	1 to 10	–	–	–	–	Cc1cn2cc(NC(=O)c3ccc(N4C[C@@H](C)N[C@@H](C)C4)c4c3OCO4)cc(F)c2n1 [Compound 643, 7-[(3S,5R)-3,5-dimethylpiperazin-1-yl]-N-(8-fluoro-2-methyl-imidazo[1,2-a]pyridin-6-yl)-1,3-benzodioxole-4-carboxamide]	0.1 to 1	1 to 10	–	–
–	–	> 10	–	–	> 10	> 10	> 10	> 10	Cn1cc2cc(NC(=O)c3c(F)cc(N4CCC(NC5CC5)CC4)c4cn(C)nc34)c(OC3CC3)cc2n1 [Compound 438, N-[6-(cyclopropoxy)-2-methyl-indazol-5-yl]-4-[4-(cyclopropylamino)-1-piperidyl]-6-fluoro-2-methyl-indazole-7-carboxamide]	–	–	> 10	> 10

SMILES	IC50 (MYB mRNA [1]; [7]) [µM]	IC50 (HTT mRNA [2]; [9]) [µM]	GI50 [3] [µM]	IC50 (MYB mRNA [4]; [10]) [µM]	IC50 (HTT mRNA [5]; [10]) [µM]	IC50 (MYB mRNA [1]; [12]) [µM]	IC50 (HTT mRNA [2]; [14]) [µM]	IC50 (MYB mRNA [4]; [15]) [µM]	IC50 (HTT mRNA [5]; [15]) [µM]	AC50 (MYB mRNA [1]; [6]) [µM]	AC50 (HTT mRNA [2]; [8]) [µM]	AC50 (MYB mRNA [1]; [11]) [µM]	AC50 (HTT mRNA [2]; [13]) [µM]
Cc1cn2cc(NC(=O)c3ccc(N(C)C4CCNCC4)c4cn(C)nc34)nc2c(C)n1 [Compound 564]	–	–	0.1 to 1	–	–	0.1 to 1	0.1 to 1	0.1 to 1	0.1 to 1	–	–	0.1 to 1	0.1 to 1
Cc1cn2cc(NC(=O)c3ccc(N4CC5CCC(C4)N5)c4cn(C)nc34)nc2c(CNS(C)(=O)=O)n1 [Compound 885, 4-(3,8-diazabicyclo[3.2.1]octan-3-yl)-N-[8-(methanesulfonamidomethyl)-6-methyl-imidazo[1,2-a]pyrazin-2-yl]-2-methyl-indazole-7-carboxamide]	1 to 10	1 to 10	1 to 10	1 to 10	1 to 10	–	–	–	–	1 to 10	1 to 10	–	–
